The values that follow come from US20170304329A1 (THE UNIVERSITY OF KANSAS, priority 2014, published 2017).

Experiment [1] concerns 253-JBV bladder cancer cells. Description: Clonogenicity assay. The note with it: 48 h treatment, then 10 days. In kind it is cell-based, human. How it is done: (§1) We next determined the long-term effect of ciclopirox (CPX) on bladder cancer cells using the clonogenicity assay. For this assay, 6-well plates were seeded with 500 viable cells and were allowed to grow for overnight. The cells were then incubated in the presence or absence of various concentrations (1 and 5 μM) of CPX for 48 h. The CPX containing medium was then removed, and the cells were washed in PBS and incubated for an additional 10 days in complete medium. Each treatment was done in triplicate. The colonies obtained were washed with PBS and fixed in 10% formalin for 10 min at room temperature and then washed with PBS followed by staining with crystal violet. The colonies were compared to untreated cells.
(§2) The fresh medium was replaced and allowed to grow for 10 days. The colonies were stained with crystal violet and compared to untreated cells.

The subject of experiment [2] is T24 bladder cancer cells. Put plainly: Clonogenicity assay. In kind it is cell-based, human. Conditions: 48 h treatment, then 10 days. As for the experimental part: as §1, §2
The test system of experiment [3] is T24 cells. Put plainly: Flow cytometry-based cell cycle analysis. Set-up: species or system human. As for the experimental part: Flow cytometry-based cell cycle analysis studies were conducted to determine the effect of ciclopirox (CPX) on cell cycle progression in T24 cells (data not shown). […] At 1×IC50 and 2×IC50 concentrations, CPX arrest cells at G0/G1 phase. Cells were treated with CPX and a flow cytometer based analysis was performed.

The test system of experiment [4] is T24 bladder cancer cells. Put plainly: Annexin V-FITC apoptosis labeling. Format: cell-based, human. Conditions: 4 μM, up to 48 h. How it is done: It was determined that CPX induces apoptosis. We next determined whether the compounds could induce cell death through the apoptotic pathway. For this we treated T24 bladder cancer cells with CPX (4 μM) and labeled the cells with FITC conjugated Annexin V to detect apoptotic cells. […] Cells were incubated with the indicated dose of compound for up to 48 h.

Experiment [5] relates to Notch1 signaling and γ-secretase complex proteins in T24 cells. Description: Western blot of Notch signaling pathway proteins. Format: cell-based, human. The note with it: bladder cancer cell lines (T24). How it is done:
Western blot studies were performed to detect the effect of CPX on the expression of proteins involved in Notch signaling pathway. Cell lysates were subjected to polyacrylamide gel electrophoresis and blotted onto Immobilon polyvinylidene difluoride membranes (Millipore, Bedford, Mass., USA). Antibodies were purchased from Cell Signaling Technology (Beverly, Mass., USA), Abcam Inc. (Cambridge, Mass., USA) and Santa Cruz Biotechnology Inc. (Santa Cruz, Calif., USA) and specific proteins were detected by the enhanced chemiluminescence system (GE Healthcare, Piscataway, N.J., USA).

The test system of experiment [6] is T24 cells transfected with Notch-1 intracellular domain (NICD). Put plainly: Ectopic NICD expression and cell proliferation. Format: cell-based, human. Conditions: CPX 4 μM. As for the experimental part: We determined whether ectopic expression of NICD reversed ciclopirox (CPX) mediated inhibition of cell proliferation. For this study, T24 Cells were transfected with plasmid EF.hICN1.CMV.GFP encoding the Notch-1 intracellular domain (NICD) or the empty vector EF.v-CMV.GFP (Addgene Inc.) and subsequently treated with CPX (4 μM). Cell proliferation was detected using hexoaminidase assay.

Experiment [7] relates to T24 cells. Put plainly: Proliferation with predicted CPX urine concentration in 20% normal urine. In kind it is cell-based, human. Conditions: 3 days treatment, 50 uM-1.5625 uM CPX in 20% normal urine, 72 h. How it is done: (§3) We next determined the effect of CPX in normal urine on T24 and 253JBV cells upon everyday treatment for up to 72 h (3 days treatment). The idea behind this experiment is to see the effect of predicted concentration of CPX in human urine on bladder cancer cells as the patient's bladder will be exposed every day to the predicted concentration of CPX. Three sets of plates were used, one plate each for one day treatment, two days treatment and three days treatment of CPX (50-1.5625 uM). T24 and 253JBV cells were incubated with CPX in normal urine (20% normal urine in complete RPMI media). […] The effect of CPX was determined by hexosaminidase assay beyond the 12 hours of varying CPX concentration (25 h, 48 h, and 72 h). In two days treatment, the cells are exposed to 50 uM-1.5625 uM for two days and the effect was determined by hexosaminidase assay at 48 h and 72 h time points. In three days treatment, the cells are exposed to 50 uM-1.5625 uM for three days and the effect was determined by hexosaminidase assay at 72 h time point.
T24 Cells were incubated with CPX in normal urine (20% normal urine in complete RPMI media). […] The effect of CPX was determined by hexosaminidase assay beyond the 12 hours of varying CPX concentration (25 h, 48 h, and 72 h). […]

Experiment [8] relates to 253JBV cells. Described as above. Conditions: 3 days treatment, 50 uM-1.5625 uM CPX in 20% normal urine, 72 h. In kind it is cell-based, human. How it is done: as §3
253JBV Cells were incubated with CPX in normal urine (20% normal urine in complete RPMI media). […] The effect of CPX was determined by hexosaminidase assay beyond the 12 hours of varying CPX concentration (25 h, 48 h, and 72 h). […]

As for `Cc1cc(C2CCCCC2)n(O)c(=O)c1` [CPX, 6-cyclohexyl-1-hydroxy-4-methylpyridin-2(1H)-one], the colony formation result in experiment [1] was “inhibited the number and size of colonies compared to control”; in experiment [2] it was “inhibited the number and size of colonies compared to control”. Moreover, the cell cycle progression entry in experiment [3] was “induces S-phase cell cycle arrest”. For the same compound, in experiment [4], the “cell death (Annexin V-FITC labeled cells)” value was “significant increase in cell death”. For the same compound, the “expression of Notch pathway proteins” value in experiment [5] is recorded as “significantly inhibited the expression of the γ-secretase complex proteins”. Besides, the “rescue of proliferation by NICD” value in experiment [6] is given as “Ectopic expression of NICD reversed CPX mediated inhibition of cell proliferation”. The “maximum inhibition of proliferation” value in experiment [7] was 20%; in experiment [8], 35%.
